Measurements published in ChEMBL document CHEMBL3745634, “Synthesis, cyclooxygenase inhibition, anti-inflammatory evaluation and ulcerogenic liability of new 1,3,5-triarylpyrazoline and 1,5-diarylpyrazole derivatives as selective COX-2 inhibitors” (Bioorg Med Chem Lett, 2016).
The source made the active and inactive calls. The rule behind the calls is not given here.

Columns and labels:
Rattus norvegicus [1] = assay: Ulcerogenic activity in po dosed formalin-induced rat foot paw edema model assessed as ulcer index at antiinflammatory ED50; type: toxicity, organism-based; conditions: in vivo
[2] = target: T1, Prostaglandin G/H synthase 1 (Ovis aries, UniProt P05979); assay: Inhibition of ovine COX1 by enzyme immuno assay
T1 sequence (P05979 whole entry): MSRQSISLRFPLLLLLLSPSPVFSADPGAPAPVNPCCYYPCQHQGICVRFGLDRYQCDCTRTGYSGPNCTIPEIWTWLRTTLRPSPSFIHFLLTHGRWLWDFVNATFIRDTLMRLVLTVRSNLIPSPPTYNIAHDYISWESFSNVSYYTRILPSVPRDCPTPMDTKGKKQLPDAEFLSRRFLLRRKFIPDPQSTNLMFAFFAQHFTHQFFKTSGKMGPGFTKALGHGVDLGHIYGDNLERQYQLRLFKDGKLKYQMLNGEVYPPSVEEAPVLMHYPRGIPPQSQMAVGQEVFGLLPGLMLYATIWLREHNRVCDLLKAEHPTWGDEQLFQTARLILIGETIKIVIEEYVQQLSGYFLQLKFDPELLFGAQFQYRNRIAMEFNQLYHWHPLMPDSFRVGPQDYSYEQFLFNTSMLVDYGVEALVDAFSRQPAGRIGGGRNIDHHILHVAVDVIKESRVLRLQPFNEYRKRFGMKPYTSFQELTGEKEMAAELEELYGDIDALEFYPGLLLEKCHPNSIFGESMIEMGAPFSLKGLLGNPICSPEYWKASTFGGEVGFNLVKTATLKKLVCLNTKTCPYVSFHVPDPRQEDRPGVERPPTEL

Rattus norvegicus [3] = assay: Antiinflammatory activity in po dosed formalin-induced rat foot paw edema model assessed as paw thickness after 3 hrs; type: functional
Rattus norvegicus [4] = assay: Ulcerogenic activity in formalin-induced rat foot paw edema model assessed as ulcer index at 120 umol/kg, po; type: toxicity, organism-based; conditions: in vivo

| Structure (SMILES) | UI (Rattus norvegicus [1]) | IC50 [2] | ED50 (Rattus norvegicus [3]) | UI (Rattus norvegicus [4]) |
| --- | --- | --- | --- | --- |
| NS(=O)(=O)c1ccc(N2N=C(c3cccs3)CC2c2ccco2)cc1 (configuration not stated) | 4.15 | 14.6 µM | 209 µmol/kg |  |
| NS(=O)(=O)c1ccc(N2N=C(c3ccco3)CC2c2ccco2)cc1 (configuration not stated) | 1.2 | 9.65 µM | 383 µmol/kg |  |
| COc1cc(C2CC(c3cccs3)=NN2c2ccc(S(N)(=O)=O)cc2)cc(OC)c1OC (configuration not stated) |  | 13.4 µM | 382 µmol/kg |  |
| NS(=O)(=O)c1ccc(N2N=C(c3cccs3)CC2c2cccs2)cc1 (configuration not stated) | 2.7 | 16.4 µM | 144 µmol/kg |  |
| NS(=O)(=O)c1ccc(N2N=C(c3ccco3)CC2c2ccc(C(F)(F)F)cc2)cc1 (configuration not stated) | 1.2 | 2.14 µM | inactive |  |
| NS(=O)(=O)c1ccc(N2N=C(c3cccs3)CC2c2ccc(Cl)cc2)cc1 (configuration not stated) | 2.82 | 8.71 µM | 197 µmol/kg |  |
| NS(=O)(=O)c1ccc(N2N=C(c3ccco3)CC2c2ccc(Cl)cc2)cc1 (configuration not stated) | 4.12 | 4.66 µM | 404 µmol/kg |  |
| CC(C)Cc1ccc(C(C)C(=O)O)cc1 (configuration not stated) [IBUPROFEN] |  |  | 499 µmol/kg | 20.25 |
| COc1ccc(C2CC(c3cccs3)=NN2c2ccc(S(N)(=O)=O)cc2)cc1 (configuration not stated) | 2.97 | 11.7 µM | 204 µmol/kg |  |
| COc1ccc(C2CC(c3ccco3)=NN2c2ccc(S(N)(=O)=O)cc2)cc1 (configuration not stated) | 3.13 | 6.74 µM | 232 µmol/kg |  |
| NS(=O)(=O)c1ccc(N2N=C(c3cccs3)CC2c2ccc(C(F)(F)F)cc2)cc1 (configuration not stated) | 3.8 | 5.74 µM | 99 µmol/kg |  |
| NS(=O)(=O)c1ccc(N2N=C(c3ccco3)CC2c2ccccc2)cc1 (configuration not stated) | 4.6 | 10.2 µM | 238 µmol/kg |  |
| Cc1ccc(-c2cc(C(F)(F)F)nn2-c2ccc(S(N)(=O)=O)cc2)cc1 [CELECOXIB] | 2.9 |  | 47 µmol/kg |  |
| COc1cc(C2CC(c3ccco3)=NN2c2ccc(S(N)(=O)=O)cc2)cc(OC)c1OC (configuration not stated) | 2.7 | 7.36 µM | 179 µmol/kg |  |
| NS(=O)(=O)c1ccc(N2N=C(c3ccco3)CC2c2cccs2)cc1 (configuration not stated) | 3.03 | 12.3 µM | 469 µmol/kg |  |
